From US8497278B2, “Imidazo[1,2-a]pyridine compounds” (priority 2008, dated 2013)

Columns and labels:
[1] = target: T1, α2 subtype containing GABA-A receptors (Homo sapiens, UniProt P18507+P47869); experiment: Two-electrode voltage clamp electrophysiology in Xenopus oocytes, potentiation of GABA EC20 response, α2; assay type: cell-based; details: 100 nM compound; for activation at 0.1 µM: read-out: Percentage of potentiation alpha2
T1 construct: expressed in transfected cells; host or cells: Xenopus laevis oocytes, cRNA injected
Description: (§1) Electrophysiology protocol: Oocytes were prepared from adult female Xenopus laevis frogs. cRNA encoding human α1, α2, α3, α5, β3 and γ2L GABAA receptor subunits was injected into the cytoplasm of stage 5 or 6 oocytes using the Robocyte Robot (Multi Channel Systems, Reutlingen, Germany). Two-electrode voltage clamp recordings were made in 96-well plates using the Robocyte Robot. Oocytes were impaled using recording heads with two glass electrodes containing 1.5 M potassium acetate and 0.5 M KCl and held at a membrane potential of −80 mV. Oocytes were continually perfused with a ND96 solution (96 mM NaCl, 2 mM KCl, 0.1 mM CaCl2, and 5 mM HEPES, pH 7.5) using a Gilson 222 XL Liquid Handler and Gilson Minipuls 3 Peristaltic Pump (Gilson Medical Electronics, Middleton, Wis., USA). The protocol consisted of three 20-s applications of GABA that gave a 20% of the maximum response (EC20: 60 μM) to allow for headroom to determine a baseline GABA response. To assess the potentiation, oocytes were first exposed to a single 1 μM chlordiazepoxide (CDP) as a potentiation standard. Oocytes with insufficient expression levels (currents below threshold) or insufficient γ2L subunit incorporation (judged by rapid desensitization upon GABA application, or by insufficient potentiation by CDP) were not included in analysis. Following this control application, a given oocyte was exposed to test compounds at 100 nM concentrations. Only one concentration of one compound was tested per oocyte. […] One skilled in the art will recognize that subtypes contribute to the effects of GABA-A modulators. Such that compounds favoring different subtypes can have different therapeutic effects. The magnitude of modulation, for example, partial modulators can influence the effects in vivo. “++” indicates a greater modulation that “+” so that at any given subtype “++” inducates a greater amount of modulation for that subtype. In some embodiments, modulation favoring alpha 1 relative to alpha2 and/or alpha 3 can have sedative hypnotic effects. In other embodiments, compounds with reduced selectivity of alpha 1 can express anxiolytic effects with less sedation. Compounds with selectivity for alpha 5 can have memory/cognition enhancing effects.

[2] = system: central benzodiazepine receptors; experiment: Central benzodiazepine receptor binding (test of Speth et al.); details: 1000 nM of the compound
Procedure, shortened: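 Radioligand binding by the Speth et al. method. Specific binding is total minus nonspecific binding, the latter measured with excess unlabelled ligand. Compounds screened at 1.0E-09, 1.0E-07 and 1.0E-05 M in single determination; values given as percent inhibition at 1000 nM compound.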

[3] = target: T2, α1 subtype containing GABA-A receptors (Homo sapiens, UniProt P14867+P18507); experiment: Two-electrode voltage clamp electrophysiology in Xenopus oocytes, potentiation of GABA EC20 response, α1; assay type: cell-based; details: 100 nM compound; for activation at 0.1 µM: read-out: Percentage of potentiation alpha1
T2 construct: expressed in transfected cells; host or cells: Xenopus laevis oocytes, cRNA injected
Description: as §1

T1 sequence (P47869 29-451): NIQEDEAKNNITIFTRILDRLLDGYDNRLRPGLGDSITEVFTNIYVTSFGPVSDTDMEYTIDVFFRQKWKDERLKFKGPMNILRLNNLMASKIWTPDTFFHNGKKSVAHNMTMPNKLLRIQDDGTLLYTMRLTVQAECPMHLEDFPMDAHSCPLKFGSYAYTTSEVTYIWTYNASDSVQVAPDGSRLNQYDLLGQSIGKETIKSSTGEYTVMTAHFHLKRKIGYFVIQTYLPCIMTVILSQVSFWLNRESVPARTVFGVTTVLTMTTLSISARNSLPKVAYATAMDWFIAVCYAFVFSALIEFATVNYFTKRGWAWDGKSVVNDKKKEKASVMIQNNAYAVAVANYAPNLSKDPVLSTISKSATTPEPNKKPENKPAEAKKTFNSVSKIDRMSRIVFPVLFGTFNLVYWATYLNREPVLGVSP
T1 sequence (P28472 26-473 partner): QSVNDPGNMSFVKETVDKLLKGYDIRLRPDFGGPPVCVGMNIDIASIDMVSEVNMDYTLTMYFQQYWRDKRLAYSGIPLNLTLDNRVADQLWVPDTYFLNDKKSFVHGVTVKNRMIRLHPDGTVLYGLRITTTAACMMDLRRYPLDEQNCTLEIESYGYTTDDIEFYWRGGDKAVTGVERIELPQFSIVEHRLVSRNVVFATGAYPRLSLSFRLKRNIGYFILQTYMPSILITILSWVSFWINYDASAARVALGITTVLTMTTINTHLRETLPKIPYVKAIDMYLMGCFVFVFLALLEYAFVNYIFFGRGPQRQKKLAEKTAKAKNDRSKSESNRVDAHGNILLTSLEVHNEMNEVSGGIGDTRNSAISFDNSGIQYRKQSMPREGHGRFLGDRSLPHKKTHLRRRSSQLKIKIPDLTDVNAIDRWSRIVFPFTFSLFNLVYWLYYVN
T1 sequence (P18507 40-475): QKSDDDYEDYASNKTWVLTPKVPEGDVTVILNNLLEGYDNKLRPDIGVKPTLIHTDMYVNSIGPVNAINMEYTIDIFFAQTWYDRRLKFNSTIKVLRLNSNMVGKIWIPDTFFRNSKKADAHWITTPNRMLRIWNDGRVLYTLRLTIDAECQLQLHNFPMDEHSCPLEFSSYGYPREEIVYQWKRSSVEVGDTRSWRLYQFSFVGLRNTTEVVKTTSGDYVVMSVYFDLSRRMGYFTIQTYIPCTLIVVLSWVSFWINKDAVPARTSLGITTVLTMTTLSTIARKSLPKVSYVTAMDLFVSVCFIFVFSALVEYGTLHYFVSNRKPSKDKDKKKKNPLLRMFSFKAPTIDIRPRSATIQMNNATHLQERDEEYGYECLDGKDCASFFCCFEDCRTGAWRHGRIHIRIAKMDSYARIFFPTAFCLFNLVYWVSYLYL
T2 sequence (P14867 28-456): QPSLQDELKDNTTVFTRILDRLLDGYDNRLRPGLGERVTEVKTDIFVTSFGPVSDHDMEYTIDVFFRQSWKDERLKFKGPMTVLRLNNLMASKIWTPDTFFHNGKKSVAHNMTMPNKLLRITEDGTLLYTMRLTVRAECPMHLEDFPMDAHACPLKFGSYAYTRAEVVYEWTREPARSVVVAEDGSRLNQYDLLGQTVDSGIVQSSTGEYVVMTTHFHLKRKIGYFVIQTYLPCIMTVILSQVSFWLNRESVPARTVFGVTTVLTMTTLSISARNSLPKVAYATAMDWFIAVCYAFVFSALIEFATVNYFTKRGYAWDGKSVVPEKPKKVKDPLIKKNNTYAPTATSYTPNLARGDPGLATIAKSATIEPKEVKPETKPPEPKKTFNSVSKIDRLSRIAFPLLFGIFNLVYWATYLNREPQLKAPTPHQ
T2 sequence (P28472 26-473 partner): as the sequence (P28472 26-473 partner) above
T2 sequence (P18507 40-475): as the sequence (P18507 40-475) above

Compound	Percentage of potentiation alpha2 [1]	% Inhibition at 1000 nM for CBZD [2]	Percentage of potentiation alpha1 [3]	activation at 0.1 µM [1] [%]	activation at 0.1 µM [3] [%]
Cc1ccc(-c2nc3ccc(C)cn3c2Cn2cccn2)cc1 [Compound 8, 3-((1H-pyrazol-1-yl)methyl)-6-methyl-2-p-tolylH-imidazo[1,2-a]pyridine]	+ (percentage of potentiation is greater than or equal to 10% but less than 50% in the presence of 100 nM of the compound)	++ (percentage of inhibition of central BZD site binding is greater than 80% in the presence of 1000 nM of the compound)	++ (percentage of potentiation is greater than or equal to 50% in the presence of 100 nM of the compound)		
Cc1ccc(-c2nc3ccc(C)cn3c2Cn2nc(C)cc2C)cc1 [Compound 9, 6-Methyl-3-((3,5-dimethyl-1H-pyrazol-1-yl)methyl)-2-p-tolylH-imidazo[1,2-a]pyridine]	+ (percentage of potentiation is greater than or equal to 10% but less than 50% in the presence of 100 nM of the compound)	++ (percentage of inhibition of central BZD site binding is greater than 80% in the presence of 1000 nM of the compound)	+ (percentage of potentiation is greater than or equal to 10% but less than 50% in the presence of 100 nM of the compound)		
Clc1ccc(-c2nc3ccc(Cl)cn3c2Cn2ccnn2)cc1 [Compound 19, 3-((1H-1,2,3-triazol-1-yl)methyl)-6-chloro-2-(4-chlorophenyl)H-imidazo[1,2-a]pyridine]	+ (percentage of potentiation is greater than or equal to 10% but less than 50% in the presence of 100 nM of the compound)	++ (percentage of inhibition of central BZD site binding is greater than 80% in the presence of 1000 nM of the compound)	+ (percentage of potentiation is greater than or equal to 10% but less than 50% in the presence of 100 nM of the compound)		
Cc1noc(-c2nccn2Cc2c(-c3ccc(Cl)cc3)nc3ccccn23)n1 [Compound 27, 2-(4-chlorophenyl)-3-((2-(3-methyl-1,2,4-oxadiazol-5-yl)-1H-imidazol-1-yl)methyl)H-imidazo[1,2-a]pyridine]	+ (percentage of potentiation is greater than or equal to 10% but less than 50% in the presence of 100 nM of the compound)	++ (percentage of inhibition of central BZD site binding is greater than 80% in the presence of 1000 nM of the compound)	+ (percentage of potentiation is greater than or equal to 10% but less than 50% in the presence of 100 nM of the compound)		
CCOC(=O)c1cc(C)n(Cc2c(-c3ccc(Cl)cc3)nc3ccccn23)n1 [Compound 29, ethyl 1-((2-(4-chlorophenyl)imidazo[1,2-a]pyridin-3-yl)methyl)-5-methyl-1H-pyrazole-3-carboxylate]		++ (percentage of inhibition of central BZD site binding is greater than 80% in the presence of 1000 nM of the compound)		≥ 50	≥ 50
Clc1ccc(-c2nc3ccccn3c2Cn2nc3ccccc3n2)cc1 [Compound 43, 2-((2-(4-chlorophenyl)H-imidazo[1,2-a]pyridin-3-yl)methyl)-2H-benzo[d][1,2,3]triazole]	+ (percentage of potentiation is greater than or equal to 10% but less than 50% in the presence of 100 nM of the compound)	++ (percentage of inhibition of central BZD site binding is greater than 80% in the presence of 1000 nM of the compound)	0 (percentage of potentiation is between about 10% to about −10%)		
COC(=O)c1ncnn1Cc1c(-c2ccccc2)nc2ccc(Cl)cn12 [Compound 44, 2-(6-Chloro-2-phenyl-imidazo[1,2-a]pyridin-3-ylmethyl)-2H-[1,2,4]triazole-3-carboxylic acid methyl ester]		++ (percentage of inhibition of central BZD site binding is greater than 80% in the presence of 1000 nM of the compound)		-10 to 10	-10 to 10
Clc1ccc2nc(-c3ccccc3)c(Cn3nnc4ccccc43)n2c1 [Compound 46, 1-((6-chloro-2-phenylH-imidazo[1,2-a]pyridin-3-yl)methyl)-1H-benzo[d][1,2,3]triazole]	0 (percentage of potentiation is between about 10% to about −10%)	++ (percentage of inhibition of central BZD site binding is greater than 80% in the presence of 1000 nM of the compound)	+ (percentage of potentiation is greater than or equal to 10% but less than 50% in the presence of 100 nM of the compound)		
Clc1ccc2nc(-c3ccccc3)c(Cn3nc4ccccc4n3)n2c1 [Compound 47, 2-((6-chloro-2-phenylH-imidazo[1,2-a]pyridin-3-yl)methyl)-2H-benzo[d][1,2,3]triazole]	0 (percentage of potentiation is between about 10% to about −10%)	+ (percentage of inhibition of central BZD site binding is greater than 50% but less than 80% in the presence of 1000 nM of the compound)	0 (percentage of potentiation is between about 10% to about −10%)		
Fc1ccc(-c2nc3ccccn3c2Cn2nccn2)cc1 [Compound 49, 3-((2H-1,2,3-triazol-2-yl)methyl)-2-(4-fluorophenyl)H-imidazo[1,2-a]pyridine]	+ (percentage of potentiation is greater than or equal to 10% but less than 50% in the presence of 100 nM of the compound)	++ (percentage of inhibition of central BZD site binding is greater than 80% in the presence of 1000 nM of the compound)	0 (percentage of potentiation is between about 10% to about −10%)		
Fc1ccc2nc(-c3ccc(Cl)cc3)c(Cn3nccn3)n2c1 [Compound 56, 3-((2H-1,2,3-triazol-2-yl)methyl)-2-(4-chlorophenyl)-6-fluoroH-imidazo[1,2-a]pyridine]	++ (percentage of potentiation is greater than or equal to 50% in the presence of 100 nM of the compound)	++ (percentage of inhibition of central BZD site binding is greater than 80% in the presence of 1000 nM of the compound)	+ (percentage of potentiation is greater than or equal to 10% but less than 50% in the presence of 100 nM of the compound)		
Fc1ccc2nc(-c3ccc(Cl)cc3)c(Cn3ccnn3)n2c1 [Compound 57, 3-((1H-1,2,3-triazol-1-yl)methyl)-2-(4-chlorophenyl)-6-fluoroH-imidazo[1,2-a]pyridine]	++ (percentage of potentiation is greater than or equal to 50% in the presence of 100 nM of the compound)	++ (percentage of inhibition of central BZD site binding is greater than 80% in the presence of 1000 nM of the compound)	+ (percentage of potentiation is greater than or equal to 10% but less than 50% in the presence of 100 nM of the compound)		
Fc1ccc2nc(-c3ccc(Cl)cc3)c(Cn3nc4ccccc4n3)n2c1 [Compound 59, 2-((2-(4-chlorophenyl)-6-fluoroH-imidazo[1,2-a]pyridin-3-yl)methyl)-2H-benzo[d][1,2,3]triazole]	0 (percentage of potentiation is between about 10% to about −10%)	+ (percentage of inhibition of central BZD site binding is greater than 50% but less than 80% in the presence of 1000 nM of the compound)	0 (percentage of potentiation is between about 10% to about −10%)		
